Laboratory results from patent publication US6999905B2, “Method for extracting significant signal, recording medium and program” (priority 2002, dated 2006).

Key:
Format in all cases: cell-based
[1] = tested on: neuron prepared from Lymnaea stagnails
[2] = tested on: neuron prepared from Lymnaea stagnails; assay: Electrical signal of a neuron under glutamate, average of standard deviations (Example 1); settings: 0, 0.1, 0.3, 1, 3, 10, 30, or 100 μM glutamate; standard deviation of 100 milliseconds; FIG. 6
From the text: FIG. 2 is a schematic diagram showing a configuration of an apparatus and steps used in a signal extracting method according to Example 1 of the present invention. The apparatus comprises a measurement section 101 for continuously measuring action potential generated from a neuron; a computer 100 incorporating a hard disk storing a program for executing a standard deviation calculation step 102 for calculating a standard deviation of measured data every predetermined time, an average calculation step 105 for calculating an average of standard deviation values output every predetermined time, and an activity calculation step 108 for calculating an ion channel activity from an average output from the average calculation step 105; and a data displaying section 110, such as CRT, for displaying the ion channel activity.
The apparatus was used to measure an electrical signal of a neuron which was actually prepared from Lymnaea stagnails where 0, 0.1, 0.3, 1, 3, 10, 30, or 100 μM glutamate was applied to the neuron. The resultant measured data spanning […] was divided into pieces of subdata spanning 100 milliseconds, for each of which a standard deviation was in turn calculated. The average of the standard deviations was plotted in FIG. 6. […]

[3] = tested on: neuron prepared from Lymnaea stagnails; assay: Extracellular recording of a neuron before and after glutamate, normal distribution of standard deviations (Example 2); settings: after application of 50 μM glutamate, before application 0.488
From the text: FIG. 3 is a schematic diagram showing a configuration of an apparatus and steps used in a signal extracting method according to Example 2 of the present invention. The apparatus comprises a measurement section 101 for continuously measuring action potential generated from a neuron; a computer 100 incorporating a hard disk storing a program for executing a standard deviation calculation step 102 for calculating a standard deviation of measured data every predetermined time, a normal distribution approximation step 103 for dividing a standard deviation group consisting of a plurality of resultant standard deviations into a plurality of classes having a predetermined width of standard deviation as a unit, and plotting each standard deviation on a coordinate system in which X axis represents the class and Y axis represents the number of the standard deviations existing in each class, an average and half-width calculation step 106 for approximating the resultant graph to a normal distribution, and calculating the average and half-width of the resultant normal distribution, and an activity categorization step 109 for categorizing an ion channel activity based on the resultant average and half-width; and a data displaying section 110, such as CRT, for displaying the ion channel activity. […]

[4] = tested on: neuron prepared from Lymnaea stagnails; assay: Conventional intracellular recording of a neuron before and after glutamate, same signal processing (Example 2, FIG. 8); settings: after application of glutamate, before application 0.181
From the text: The curve to the left in FIG. 8 is a histogram of standard deviation values every 5 milliseconds before application of glutamate. The curve to the right in FIG. 8 is a histogram of standard deviation values every 5 milliseconds after the application of glutamate. As indicated in these figures, the averages and half-widths of graphs obtained by approximating the histograms, before and after the application of glutamate, to normal distributions are 0.181 and 0.041, respectively, before the application and 0.534 and 0.204, respectively, after the application. Comparing between the results of FIGS. 7 and 8, the result of the extracellular recording method is similar to that of the intracellular recording method.

[5] = tested on: Smooth muscle cells derived from rat aorta vessels; assay: Potential changes of smooth muscle cells on a semiconductor substrate stimulated with norepinephrine (Example 7); settings: 10 μM norepinephrine; potential changes measured for 60 seconds; FIG. 15
Experimental: Smooth muscle cells derived from rat aorta vessels were cultured on a specially treated semiconductor substrate.
The semiconductor substrate has 100 through holes, each of which has a diameter of 5 μm with the pitch of the through holes being 30 μm, in an area of 1 mm^2. A surface of the semiconductor substrate was coated with 0.01% (w/v) collagen type I solution (Sigma C8919) at a density of 10 μg/cm^2, which was in turn allowed to react at 37° C. for 30 minutes, followed by air drying. Smooth muscle cells derived from rat aorta vessels were cultured on the substrate cleansed with sterilized water. After three days of the culture, the following experiment was conducted.
When measuring ion channel activity, the vessel smooth muscle cells were suctioned by applying a predetermined pressure from the rear side of the semiconductor substrate so that the cells were made to contact the semiconductor substrate. […] In an experimental system, the smooth muscle cells were stimulated with 10 μM norepinephrine, and potential changes were measured for 60 seconds. […] Note that the collection of time-series data was started 10 milliseconds after the start of the experiment, so that measured data was not extracted for the time lag. Thereafter, standard deviations were calculated every 100 milliseconds from the time-series data, thereby clearly extracting ion channel activities due to the stimulant. […]

Row | SMILES | average of the distribution of standard deviation values every 5 milliseconds [1] | average of the standard deviations (ion channel activity) [2] | average of normal distribution of standard deviation values every 5 milliseconds [3] | average of normal distribution of standard deviation values every 5 milliseconds [4] | average of the normal distribution of standard deviations every 100 milliseconds (ion channel activities) [5]
1 | NC1=N[C@H](O)[C@H]2[C@H]3O[C@]4(O)O[C@@H]([C@@H](O)[C@@]2(N1)[C@@H]4O)[C@]3(O)CO [TTX, tetrodotoxin] | shifted along the horizontal axis toward the left further than the control | – | – | – | –
2 | N[C@@H](CCC(=O)O)C(=O)O [glutamate] | shifted toward the right along the horizontal axis | dependent on glutamate concentration | 0.733 | 0.534 | –
3 | NC[C@H](O)c1ccc(O)c(O)c1 [norepinephrine] | – | – | – | – | clearly shifted toward higher class values than when no drug was applied
